According to ChEMBL document CHEMBL4229332, “Novel multi-target azinesulfonamides of cyclic amine derivatives as potential antipsychotics with pro-social and pro-cognitive effects” (Eur J Med Chem, 2018):

Tests used:
[1] = Toxicity in ip dosed Sprague-Dawley rat assessed as induction of catalepsy measured every 30 mins up to 240 mins by bar test; type: organism-based; details: Sprague-Dawley, in vivo
[2] = target: T1, 5-hydroxytryptamine receptor 1A (Homo sapiens) (UniProt P08908); test: Antagonist activity at human 5-HT1AR expressed in mouse BA/F3 cells assessed as inhibition of serotonin-induced calcium flux by fluorimetric method; type: functional, cell-based
T1 sequence (whole entry): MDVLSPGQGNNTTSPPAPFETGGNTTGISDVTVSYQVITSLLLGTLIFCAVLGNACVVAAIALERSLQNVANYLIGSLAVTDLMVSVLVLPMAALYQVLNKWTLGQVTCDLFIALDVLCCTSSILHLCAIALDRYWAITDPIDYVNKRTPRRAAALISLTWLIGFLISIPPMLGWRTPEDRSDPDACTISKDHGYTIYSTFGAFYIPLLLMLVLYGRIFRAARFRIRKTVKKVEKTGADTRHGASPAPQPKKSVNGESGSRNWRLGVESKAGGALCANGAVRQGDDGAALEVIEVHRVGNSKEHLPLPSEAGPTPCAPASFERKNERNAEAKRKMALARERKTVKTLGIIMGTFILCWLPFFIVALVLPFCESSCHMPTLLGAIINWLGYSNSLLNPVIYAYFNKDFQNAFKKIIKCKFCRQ

[3] = target: T2, 5-hydroxytryptamine receptor 7 (Homo sapiens, UniProt P34969); test: Antagonist activity at human 5-HT7R expressed in CHO-K1 cells assessed as inhibition of serotonin-induced cAMP accumulation after 30 mins by chemiluminescence-based assay; type: functional, cell-based
[4] = target: D(2) dopamine receptor (Homo sapiens) (UniProt P14416); test: Antagonist activity at human D2LR expressed in CHO-K1 cells assessed as inhibition of dopamine-induced calcium flux by fluorimetric method; type: functional, cell-based
[5] = target: T3, 5-hydroxytryptamine receptor 6 (Homo sapiens, UniProt P50406); test: Antagonist activity at human 5-HT6R expressed in CHO-K1 cells assessed as inhibition of serotonin-induced cAMP accumulation after 30 mins by chemiluminescence-based assay; type: functional, cell-based
[6] = target: T4, 5-hydroxytryptamine receptor 2A (Homo sapiens, UniProt P28223); test: Antagonist activity at human 5-HT2AR expressed in HEK293 cells assessed as inhibition of serotonin-induced calcium flux after 30 mins by HTRF method; type: functional, cell-based
[7] = target: T2, 5-hydroxytryptamine receptor 7; test: Antagonist activity at human 5-HT7R expressed in CHO-K1 cells assessed as inhibition of serotonin-induced cAMP accumulation at 10^-6 M after 30 mins by chemiluminescence-based assay; type: functional, cell-based
[8] = target: T4, 5-hydroxytryptamine receptor 2A; test: Displacement of [3H]ketanserin from human recombinant 5-HT2A receptor after 60 mins by scintillation counting analysis
[9] = target: 5-hydroxytryptamine receptor 1B (Rattus norvegicus) (UniProt P28564); test: Displacement of [125I]-CYP from 5-HT1BR in rat cerebral cortex at 10^-6 M after 120 mins by scintillation counting analysis relative to control
[10] = target: Sodium-dependent noradrenaline transporter (Homo sapiens) (UniProt P23975); test: Displacement of [3H]-nisoxetine from human NET expressed in CHO cells at 10^-6 M after 120 mins by scintillation counting method relative to control; type: cell-based
[11] = target: T4, 5-hydroxytryptamine receptor 2A; test: Displacement of [3H]ketanserin from human recombinant 5-HT2A receptor at 10^-6 M after 60 mins by scintillation counting analysis relative to control
[12] = target: T1, 5-hydroxytryptamine receptor 1A (Homo sapiens); test: Displacement of [3H]-WAY100635 from recombinant full-length human 5-HT1AR expressed in CHO cells at 10^-6 M after 120 mins by scintillation counting method relative to control; type: cell-based
[13] = target: T1, 5-hydroxytryptamine receptor 1A (Homo sapiens); test: Antagonist activity at human 5-HT1AR expressed in CHO-K1 cells assessed as inhibition of serotonin-induced cAMP accumulation at 10^-6 M by chemiluminescence-based assay; type: functional, cell-based
[14] = target: T2, 5-hydroxytryptamine receptor 7; test: Displacement of [3H]LSD from recombinant human 5-HT7R after 120 mins by scintillation counting method
[15] = target: D(3) dopamine receptor (Homo sapiens) (UniProt P35462); test: Antagonist activity at human D3R expressed in CHO-K1 cells assessed as inhibition of […] cAMP accumulation at 10^-6 M by chemiluminescence-based assay; type: functional, cell-based
[16] = target: T5, Alpha-1A adrenergic receptor (Homo sapiens) (UniProt P35348); test: Antagonist activity at human adrenergic alpha1A receptor expressed in CHO cells assessed as inhibition of epinephrine-induced calcium flux by fluorimetric method; type: functional, cell-based
T5 sequence (whole entry): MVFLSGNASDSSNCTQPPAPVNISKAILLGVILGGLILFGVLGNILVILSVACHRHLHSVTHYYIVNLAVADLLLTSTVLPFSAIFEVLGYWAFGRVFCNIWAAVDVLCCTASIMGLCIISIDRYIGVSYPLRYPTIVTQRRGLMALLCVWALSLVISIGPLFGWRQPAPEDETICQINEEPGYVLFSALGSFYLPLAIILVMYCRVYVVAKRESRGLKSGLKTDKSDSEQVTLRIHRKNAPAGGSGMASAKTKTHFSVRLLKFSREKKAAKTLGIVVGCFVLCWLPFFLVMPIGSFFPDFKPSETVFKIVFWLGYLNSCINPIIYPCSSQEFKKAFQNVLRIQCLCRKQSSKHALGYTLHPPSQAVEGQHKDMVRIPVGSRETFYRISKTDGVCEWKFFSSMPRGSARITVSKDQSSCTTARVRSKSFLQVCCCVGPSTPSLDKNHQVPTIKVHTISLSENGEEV

[17] = target: 5-hydroxytryptamine receptor 2B (Homo sapiens) (UniProt P41595); test: Displacement of [3H]mesulergine from human 5-HT2B receptor expressed in CHO cells at 10^-6 M after 60 mins by scintillation counting analysis relative to control; type: cell-based
[18] = target: Sodium-dependent serotonin transporter (Homo sapiens, UniProt P31645); test: Displacement of [3H]imipramine from recombinant human SERT expressed in CHO cells after 60 mins by scintillation counting method; type: cell-based
[19] = target: T3, 5-hydroxytryptamine receptor 6; test: Antagonist activity at human 5-HT6R expressed in CHO-K1 cells assessed as inhibition of serotonin-induced cAMP accumulation at 10^-6 M by chemiluminescence-based assay; type: functional, cell-based
[20] = target: D(1A) dopamine receptor (Homo sapiens) (UniProt P21728); test: Displacement of [3H]-SCH 23390 from human dopamine D1 receptor expressed in CHO cells at 10^-6 M after 60 mins by scintillation counting method relative to control; type: cell-based
[21] = target: T1, 5-hydroxytryptamine receptor 1A (Homo sapiens); test: Antagonist activity at human 5-HT1AR expressed in CHO-K1 cells assessed as inhibition of serotonin-induced cAMP accumulation by chemiluminescence-based assay; type: functional, cell-based
Rattus norvegicus [22] = test: Toxicity in Wistar rat assessed as increase in prolactin level at 1 to 3 mg/kg, po after 60 mins by ELISA; type: organism-based; details: in vivo, 1 h
[23] = Tmax in Wistar rat plasma at 9 mg/kg per os administered as a single dose by LC-MS/MS analysis; type: ADME, organism-based; details: po
[24] = target: Histamine H1 receptor (Homo sapiens) (UniProt P35367); test: Displacement of [3H]-pyrilamine from human histamine H1 receptor expressed in HEK293 cells at 10^-6 M after 60 mins by scintillation counting method relative to control; type: cell-based
Rattus norvegicus [25] = test: Toxicity in Sprague-Dawley rat assessed as induction of catalepsy at 30 mg/kg, ip measured every 30 mins up to 240 mins by bar test; type: organism-based; details: in vivo

T2 sequence (P34969 whole entry): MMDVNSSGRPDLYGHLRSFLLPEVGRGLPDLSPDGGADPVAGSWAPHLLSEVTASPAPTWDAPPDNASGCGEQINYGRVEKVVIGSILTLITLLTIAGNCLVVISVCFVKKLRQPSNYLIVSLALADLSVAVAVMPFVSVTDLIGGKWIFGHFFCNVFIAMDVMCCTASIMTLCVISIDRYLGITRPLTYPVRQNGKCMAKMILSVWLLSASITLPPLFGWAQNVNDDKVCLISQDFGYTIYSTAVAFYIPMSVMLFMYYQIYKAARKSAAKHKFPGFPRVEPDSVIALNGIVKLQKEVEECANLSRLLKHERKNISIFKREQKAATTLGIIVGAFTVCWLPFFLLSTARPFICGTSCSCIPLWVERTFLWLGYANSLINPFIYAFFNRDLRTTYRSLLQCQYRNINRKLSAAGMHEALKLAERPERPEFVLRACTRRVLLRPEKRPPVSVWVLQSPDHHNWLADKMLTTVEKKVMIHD
T4 sequence (P28223 whole entry): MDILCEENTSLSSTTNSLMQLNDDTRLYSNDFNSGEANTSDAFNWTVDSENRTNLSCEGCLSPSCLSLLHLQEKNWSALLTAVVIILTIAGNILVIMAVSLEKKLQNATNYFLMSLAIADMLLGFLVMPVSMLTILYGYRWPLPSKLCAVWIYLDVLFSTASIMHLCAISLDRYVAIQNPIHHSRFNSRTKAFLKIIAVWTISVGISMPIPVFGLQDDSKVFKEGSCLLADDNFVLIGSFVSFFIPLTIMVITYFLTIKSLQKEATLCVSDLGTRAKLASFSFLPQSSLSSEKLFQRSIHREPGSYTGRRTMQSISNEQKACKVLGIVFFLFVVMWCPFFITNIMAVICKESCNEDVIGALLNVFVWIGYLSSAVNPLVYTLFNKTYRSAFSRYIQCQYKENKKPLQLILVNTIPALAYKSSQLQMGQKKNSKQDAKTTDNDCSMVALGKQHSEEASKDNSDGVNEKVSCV
T3 sequence (P50406 whole entry): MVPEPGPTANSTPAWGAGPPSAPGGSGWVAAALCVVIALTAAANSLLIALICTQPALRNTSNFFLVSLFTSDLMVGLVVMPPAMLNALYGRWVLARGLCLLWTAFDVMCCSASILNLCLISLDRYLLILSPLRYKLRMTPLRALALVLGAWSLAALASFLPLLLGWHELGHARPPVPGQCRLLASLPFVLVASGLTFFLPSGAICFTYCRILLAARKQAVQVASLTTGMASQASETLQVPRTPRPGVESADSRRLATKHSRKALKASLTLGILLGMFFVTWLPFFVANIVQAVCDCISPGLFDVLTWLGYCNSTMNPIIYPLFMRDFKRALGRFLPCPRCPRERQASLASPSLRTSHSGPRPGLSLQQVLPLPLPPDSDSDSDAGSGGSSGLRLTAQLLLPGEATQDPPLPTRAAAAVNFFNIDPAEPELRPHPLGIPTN
Chain of D(1A) dopamine receptor (Homo sapiens) (P21728 whole entry): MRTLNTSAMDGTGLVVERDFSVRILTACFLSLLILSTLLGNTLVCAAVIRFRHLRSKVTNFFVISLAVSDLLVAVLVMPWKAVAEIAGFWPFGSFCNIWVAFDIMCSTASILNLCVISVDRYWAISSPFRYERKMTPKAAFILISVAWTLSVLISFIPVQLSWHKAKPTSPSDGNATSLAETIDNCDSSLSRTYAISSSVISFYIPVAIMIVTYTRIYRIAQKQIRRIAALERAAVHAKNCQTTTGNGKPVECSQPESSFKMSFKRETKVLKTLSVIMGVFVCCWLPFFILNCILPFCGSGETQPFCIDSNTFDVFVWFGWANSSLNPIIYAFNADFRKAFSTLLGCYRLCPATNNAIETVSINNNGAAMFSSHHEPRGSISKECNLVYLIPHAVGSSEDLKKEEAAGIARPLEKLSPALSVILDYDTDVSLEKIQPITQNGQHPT
Chain of 5-hydroxytryptamine receptor 1B (Rattus norvegicus) (P28564 whole entry): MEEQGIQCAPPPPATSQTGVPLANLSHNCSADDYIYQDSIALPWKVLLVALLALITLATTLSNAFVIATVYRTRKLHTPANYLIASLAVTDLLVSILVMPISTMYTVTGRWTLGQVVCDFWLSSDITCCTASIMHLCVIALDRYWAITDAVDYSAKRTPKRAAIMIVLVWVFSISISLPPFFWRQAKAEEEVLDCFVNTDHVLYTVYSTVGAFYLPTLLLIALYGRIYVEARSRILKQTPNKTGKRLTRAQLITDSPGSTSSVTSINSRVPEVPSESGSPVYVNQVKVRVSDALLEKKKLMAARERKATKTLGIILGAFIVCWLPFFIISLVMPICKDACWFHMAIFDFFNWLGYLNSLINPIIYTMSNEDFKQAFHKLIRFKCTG
Chain of Histamine H1 receptor (Homo sapiens) (P35367 whole entry): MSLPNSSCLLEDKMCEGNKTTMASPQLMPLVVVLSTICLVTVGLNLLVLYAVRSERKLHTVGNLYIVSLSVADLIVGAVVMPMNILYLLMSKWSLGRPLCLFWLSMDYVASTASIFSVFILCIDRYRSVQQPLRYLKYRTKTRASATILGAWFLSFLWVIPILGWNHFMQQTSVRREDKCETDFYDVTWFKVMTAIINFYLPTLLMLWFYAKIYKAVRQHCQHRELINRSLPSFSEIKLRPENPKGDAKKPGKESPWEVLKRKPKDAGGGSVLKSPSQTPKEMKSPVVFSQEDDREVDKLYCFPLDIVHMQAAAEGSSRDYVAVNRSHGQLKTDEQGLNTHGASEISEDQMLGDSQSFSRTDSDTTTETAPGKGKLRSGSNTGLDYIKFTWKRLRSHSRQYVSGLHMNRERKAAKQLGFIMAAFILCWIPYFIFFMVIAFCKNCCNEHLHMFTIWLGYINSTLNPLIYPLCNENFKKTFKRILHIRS
Chain of 5-hydroxytryptamine receptor 2B (Homo sapiens) (P41595 whole entry): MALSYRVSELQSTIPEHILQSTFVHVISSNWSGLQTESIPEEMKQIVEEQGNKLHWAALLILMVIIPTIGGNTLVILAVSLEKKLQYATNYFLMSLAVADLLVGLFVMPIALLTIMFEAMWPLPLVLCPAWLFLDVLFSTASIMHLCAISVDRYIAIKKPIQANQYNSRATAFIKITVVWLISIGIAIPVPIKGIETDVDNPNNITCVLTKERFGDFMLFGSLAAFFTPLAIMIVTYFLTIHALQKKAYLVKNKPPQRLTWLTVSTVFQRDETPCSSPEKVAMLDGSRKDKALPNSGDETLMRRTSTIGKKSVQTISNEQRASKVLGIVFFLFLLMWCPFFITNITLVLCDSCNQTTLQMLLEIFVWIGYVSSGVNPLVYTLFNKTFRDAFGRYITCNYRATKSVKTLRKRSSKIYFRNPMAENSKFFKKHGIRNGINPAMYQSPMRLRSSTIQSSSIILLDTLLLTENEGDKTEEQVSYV
Chain of Sodium-dependent serotonin transporter (P31645 whole entry): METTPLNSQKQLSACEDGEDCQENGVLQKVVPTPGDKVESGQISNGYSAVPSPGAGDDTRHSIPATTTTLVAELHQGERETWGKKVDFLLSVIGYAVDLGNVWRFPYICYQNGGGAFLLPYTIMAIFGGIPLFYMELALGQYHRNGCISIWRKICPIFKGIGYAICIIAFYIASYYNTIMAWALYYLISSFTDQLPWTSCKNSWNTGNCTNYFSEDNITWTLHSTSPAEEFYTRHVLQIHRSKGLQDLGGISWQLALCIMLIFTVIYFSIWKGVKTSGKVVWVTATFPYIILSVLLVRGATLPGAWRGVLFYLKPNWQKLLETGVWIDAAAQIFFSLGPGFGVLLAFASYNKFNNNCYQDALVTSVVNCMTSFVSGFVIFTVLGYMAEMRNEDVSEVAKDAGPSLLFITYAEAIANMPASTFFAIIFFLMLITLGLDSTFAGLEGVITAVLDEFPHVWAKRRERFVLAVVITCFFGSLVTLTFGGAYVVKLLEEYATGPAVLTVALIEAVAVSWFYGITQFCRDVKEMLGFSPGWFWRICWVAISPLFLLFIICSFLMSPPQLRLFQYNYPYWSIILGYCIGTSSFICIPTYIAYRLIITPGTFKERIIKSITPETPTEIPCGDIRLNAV
Chain of D(3) dopamine receptor (Homo sapiens) (P35462 whole entry): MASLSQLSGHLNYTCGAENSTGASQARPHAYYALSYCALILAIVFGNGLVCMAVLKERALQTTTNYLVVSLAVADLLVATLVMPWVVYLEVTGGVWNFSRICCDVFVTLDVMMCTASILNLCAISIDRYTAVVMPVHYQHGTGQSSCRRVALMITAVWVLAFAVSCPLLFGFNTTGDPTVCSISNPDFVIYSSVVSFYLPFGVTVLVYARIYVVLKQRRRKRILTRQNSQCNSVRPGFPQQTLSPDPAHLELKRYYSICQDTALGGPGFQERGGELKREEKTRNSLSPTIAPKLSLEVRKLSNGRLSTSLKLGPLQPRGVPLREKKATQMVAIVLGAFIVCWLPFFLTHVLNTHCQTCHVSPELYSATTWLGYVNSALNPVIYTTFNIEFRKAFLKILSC
Chain of Sodium-dependent noradrenaline transporter (Homo sapiens) (P23975 whole entry): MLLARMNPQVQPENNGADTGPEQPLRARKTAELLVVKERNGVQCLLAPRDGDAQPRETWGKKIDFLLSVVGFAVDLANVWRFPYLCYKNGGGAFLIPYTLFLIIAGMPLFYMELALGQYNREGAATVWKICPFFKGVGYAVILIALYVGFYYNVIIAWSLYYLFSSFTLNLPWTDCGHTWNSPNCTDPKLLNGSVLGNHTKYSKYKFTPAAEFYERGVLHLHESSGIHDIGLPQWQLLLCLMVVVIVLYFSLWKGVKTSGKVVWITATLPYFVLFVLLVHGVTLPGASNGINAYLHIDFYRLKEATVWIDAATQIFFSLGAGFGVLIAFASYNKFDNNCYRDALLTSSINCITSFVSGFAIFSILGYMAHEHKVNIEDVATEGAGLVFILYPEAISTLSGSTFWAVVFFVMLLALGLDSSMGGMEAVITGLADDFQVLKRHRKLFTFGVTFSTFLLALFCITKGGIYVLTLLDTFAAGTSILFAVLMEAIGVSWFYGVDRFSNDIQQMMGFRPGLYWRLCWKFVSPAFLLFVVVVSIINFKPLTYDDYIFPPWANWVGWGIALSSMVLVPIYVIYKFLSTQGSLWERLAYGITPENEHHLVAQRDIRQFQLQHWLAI

O=S(=O)(c1cncc2ccccc12)N1CCC[C@H]1CCN1CCN(c2nsc3ccccc23)CC1
MTD [1]: 30 mg/kg
Kb [2]: 11 nM
Kb [3]: 2.5 nM
Kb [4]: 0.42 nM
Kb [5]: 974 nM
Kb [6]: 2 nM
inhibition [7]: 100%

O=S(=O)(c1cncc2ccccc12)N1CCC[C@H]1CCN1CCN(c2cccc3sccc23)CC1
Ki [8]: 9 nM
inhibition [9]: 84%
inhibition [10]: 11%
inhibition [11]: 100%
inhibition [12]: 100%
inhibition [13]: 32.5%
Ki [14]: 19 nM
inhibition [15]: 73%
Kb [16]: 13 nM
inhibition [17]: 100%
Ki [18]: 76 nM
inhibition [19]: 23%
inhibition [20]: 10%
Kb [21]: 35.6 nM
Activity (Rattus norvegicus [22]): Non-Toxic
Tmax [23]: 10 min
inhibition [24]: 96%
Activity (Rattus norvegicus [25]): Non-Toxic
